The text below walks through data of US9546153B2, “Bicyclic heterocycle substituted pyridyl compounds useful as kinase modulators” (BRISTOL-MYERS SQUIBB COMPANY, priority 2012, dated 2017).

For one assay, the system named is TLR2 induced IL-6 in peripheral blood mononuclear cells (PBMCs). In words: PBMC TLR2 Induced IL-6 Assay. It is filed as cell-based, human. The settings on record: Homo sapiens, PBMC, 5 h, human PBMCs, 10 μg/ml lipoteichoic acid for 5 hours, IL-6 by ELISA; value without asterisk; read-out: Cell IC50. As to the method: Peripheral blood mononuclear cells (PBMCs) were isolated from human blood containing the anti-coagulant EDTA (2.5 mM) by centrifugation over a FICOLL® gradient. PBMCs (250000 cells/well) were cultured in assay media (RPMI with 10% heat inactivated FCS) with compounds for 30 minutes at 37° C. in a 5% CO2 incubator. Following pretreatment with compounds, cells were stimulated for 5 hours with 10 μg/ml lipoteichoic acid (Invivogen, San Diego, Calif.), a TLR2 agonist. At the end of the culture, plates were centrifuged at 1800 rpm for 10 minutes to pellet the cells. Supernatants were harvested and analyzed for IL-6 levels by ELISA (BD Biosciences, San Jose, Calif.). Inhibition was calculated as either an IC50 or EC50. EC50 determinations are indicated with an asterisk.
By IC50 is commonly meant the concentration needed to halve the response being measured. For the compound `O=C(NC[C@@H](F)CO)c1cnc(Nc2ccc3[nH]c(=O)sc3c2)cc1NC1CCCC1` [Example 6], the IC50 came to 231 nM.
On the same count and under the same terms, the result for `O=C(NC[C@@H](F)CO)c1cnc(Nc2ccc3ncsc3c2)cc1NC1CC1` [Example 7] reads 732 nM.
On the same count and under the same terms, the result for `CC(C)Nc1cc(Nc2ccc3ncsc3c2)ncc1C(=O)NC[C@@H](F)C(O)(C1CC1)C(F)(F)F` (some centres unmarked) [Example 30] reads 228 nM; that for `CC(C)(O)[C@H](F)CNC(=O)c1cnc(Nc2ccc3[nH]c(=O)sc3c2)cc1NC1CCCC1` [Example 34], 152 nM; that for `CC(C)Nc1cc(Nc2ccc3[nH]c(=O)sc3c2)ncc1C(=O)NC[C@@H](F)C(C)(C)O` [Example 40], 503 nM.
The same measure, in the same setting: under `CC(C)(O)[C@H](F)CNC(=O)c1cnc(Nc2ccc3ncsc3c2)cc1N[C@@H](c1cccc(F)c1)[C@H](O)CO` [Example 44] stands 699 nM; under `CC(C)(O)[C@H](F)CNC(=O)c1cnc(Nc2ccc3ncsc3c2)cc1NC1CCC1` [Example 46], 183 nM; under `CC(C)Nc1cc(Nc2ccc3ncccc3c2)ncc1C(=O)NC[C@@H](F)C(C)(C)O` [Example 47], 571 nM.
With `CC(C)Nc1cc(Nc2ccc3nscc3c2)ncc1C(=O)NC[C@@H](F)C(C)(C)O` [Example 56], the IC50 was 330 nM.
Still for that read-out and setting: under `CC(C)(O)[C@H](F)CNC(=O)c1cnc(Nc2ccc3ncsc3c2)cc1NCC1CC1` [Example 62] stands 288 nM; under `CC(C)(O)[C@H](F)CNC(=O)c1cnc(Nc2ccc3ncsc3c2)cc1N[C@@H](c1cc(Cl)cc(Cl)c1)[C@H](O)CO` [Example 77], 377 nM.
Still for that read-out and setting: the result for `CC(C)(O)[C@H](F)CNC(=O)c1cnc(Nc2ccc3nonc3c2)cc1NC1CC1` [Example 80] reads 271 nM; that for `CC(C)(O)[C@H](F)CNC(=O)c1cnc(Nc2ccc3ncncc3c2)cc1NC1CC1` [Example 81], 100 nM; that for `CC(C)(O)[C@H](F)CNC(=O)c1cnc(Nc2ccc3ncsc3c2)cc1NCC(F)(F)F` [Example 84], 501 nM.
With `CC(C)(O)[C@H](F)CNC(=O)c1cnc(Nc2ccc3nonc3c2)cc1NC1CCOCC1` [Example 99], the 50% inhibitory concentration (IC50) worked out at 258 nM.
Turning to `CC(C)(O)[C@H](F)CNC(=O)c1cnc(Nc2ccc3ccncc3c2)cc1NC1CC1` [Example 132], the IC50 was 350 nM.
For `N#CCNC(=O)c1cnc(Nc2ccc3ncsc3c2)cc1NC1CCCC1` [Example 153], the IC50 worked out at 510 nM.
As to `CC(C)CCNc1cc(Nc2ccc3ncsc3c2)ncc1C(=O)NC[C@@H](F)C(C)(C)O` [Example 163], the concentration for half-maximal inhibition (IC50) turned out to be 230 nM.
Turning to `CC(C)(O)CCNC(=O)c1cnc(Nc2ccc3ncsc3c2)cc1N[C@H]1CC[C@@H](F)CC1` [Example 174], the IC50 came to 150 nM.
Same read-out and setting: the result for `CC(C)Nc1cc(Nc2ccc3ncsc3c2)ncc1C(=O)NCC[C@@H](C)NC(=O)N1CCOCC1` [Example 182] reads 508 nM; that for `CC(C)CCNC(=O)c1cnc(Nc2ccc3ncsc3c2)cc1NC(C)C` [Example 210], 551 nM.
Regarding `CC(C)Nc1cc(Nc2ccc3ncsc3c2)ncc1C(=O)N[C@H]1CCN(S(C)(=O)=O)C1` [Example 215], the concentration for half-maximal inhibition (IC50) stood at 566 nM.
Same read-out and setting: under `CC(C)(O)[C@H](F)CNC(=O)c1cnc(Nc2ccn3nccc3n2)cc1NCC(F)(F)F` [Example 238] stands 595 nM; under `CCNc1cc(Nc2ccn3nccc3n2)ncc1C(=O)NC[C@@H](F)C(C)(C)O` [Example 239], 379 nM; under `CC(C)(O)[C@H](F)CNC(=O)c1cnc(Nc2ccn3nccc3n2)cc1NC1CCC1` [Example 241], 516 nM.
For the compound `Cc1cc2nc(Nc3cc(NC(C)C)c(C(=O)NC[C@@H](F)C(C)(C)O)cn3)ccn2n1` [Example 250], the 50% inhibitory concentration (IC50) amounted to 748 nM.
For `CC(C)(O)[C@H](F)CNC(=O)c1cnc(Nc2nc3ccnn3cc2F)cc1NC1CC1` [Example 269], the concentration for half-maximal inhibition (IC50) came to 445 nM.
On the same count and under the same terms, the result for `Cc1cnc2ccc(Nc3cc(NC4CC4)c(C(=O)NC[C@@H](F)C(C)(C)O)cn3)nn12` [Example 276] reads 256 nM.

The same assay, now with this note: Homo sapiens, PBMC, 5 h, read-out: Cell IC50.
For the compound `CNC(=O)c1cnc(Nc2ccc3ncsc3c2)cc1N[C@@H](c1ccccc1)[C@H](O)CO` [Example 143], the concentration for half-maximal inhibition (IC50) is 295 nM.
Still for that read-out and setting: under `CNC(=O)c1cnc(Nc2ccc3ncsc3c2)cc1N[C@H](CO)c1ccccc1` [Example 145] stands 260 nM.

The assay is the same for the next values; noted with them: human PBMCs, 10 μg/ml lipoteichoic acid for 5 hours, IL-6 by ELISA; value without asterisk; read-out: Cell IC50.
Consider `CC(O)([C@H](F)CNC(=O)c1cnc(Nc2ccc3ncsc3c2)cc1NC1CCCC1F)C(F)(F)F` (stereo in doubt) [Example 339], for which the concentration for half-maximal inhibition (IC50) was found to be 460 nM.
In the case of `CC(O)([C@H](F)CNC(=O)c1cnc(Nc2ccc3ncsc3c2)cc1NC1CCCC1F)C(F)(F)F` (stereo in doubt) [Example 340], the IC50 amounted to 419 nM.
The same measure, in the same setting: the result for `CC(O)([C@H](F)CNC(=O)c1cnc(Nc2ccc3ncsc3c2)cc1NC1CCCC1F)C(F)(F)F` (stereo in doubt) [Example 341] reads 97 nM.
On the same count and under the same terms, under `CC(O)([C@H](F)CNC(=O)c1cnc(Nc2ccc3ncsc3c2)cc1NC1CCCC1F)C(F)(F)F` (stereo in doubt) [Example 342] stands 71 nM; under `CC(C)Nc1cc(Nc2ccc3nsnc3c2)ncc1C(=O)NC[C@@H](F)C(O)C(C)C` (some centres unmarked) [Example 22], 456 nM.
`CC(C)Nc1cc(Nc2ccc3nsnc3c2)ncc1C(=O)NC[C@@H](F)C(O)C(C)C` (some centres unmarked) [Example 23]: the IC50 came out at 165 nM.
On the same count and under the same terms, under `CC(C)Nc1cc(Nc2ccc3ncsc3c2)ncc1C(=O)NC[C@@H](F)C(O)(C1CC1)C(F)(F)F` (some centres unmarked) [Example 31] stands 249 nM; under `CC(C)(O)[C@H](F)CNC(=O)c1cnc(Nc2ccc3ncsc3c2)cc1NCC1CCCC1O` (some centres unmarked) [Example 112], 203 nM.
On to `CC(C)(O)[C@H](F)CNC(=O)c1cnc(Nc2ccc3ncsc3c2)cc1NCC1CCCC1O` (some centres unmarked) [Example 113], for which the concentration for half-maximal inhibition (IC50) is 803 nM.
On the same count and under the same terms, the result for `CC(C)(O)[C@H](F)CNC(=O)c1cnc(Nc2ccc3ncsc3c2)cc1NCC1CCCC1O` (some centres unmarked) [Example 114] reads 491 nM; that for `CC(C)(O)[C@H](F)CNC(=O)c1cnc(Nc2ccc3ncsc3c2)cc1NCC1CCCC1F` (some centres unmarked) [Example 116], 296 nM.
The same measure, in the same setting: the result for `CC(C)(O)[C@H](F)CNC(=O)c1cnc(Nc2ccc3ncsc3c2)cc1NCC1CCCC1F` (some centres unmarked) [Example 117] reads 363 nM.
On to `CC(C)(O)[C@H](F)CNC(=O)c1cnc(Nc2ccc3ncsc3c2)cc1NCC1CCCC1F` (some centres unmarked) [Example 118], for which the IC50 worked out at 109 nM.
The same measure, in the same setting: the result for `CC(C)(O)[C@H](F)CNC(=O)c1cnc(Nc2ccn3nccc3n2)cc1NC1CCC(F)(F)C1` (some centres unmarked) [Example 242] reads 179 nM.
On to `CC(C)(O)[C@H](F)CNC(=O)c1cnc(Nc2ccn3nccc3n2)cc1NC1CCOCC1F` (some centres unmarked) [Example 249], for which the half-inhibitory concentration (IC50) was found to be 554 nM.
On the same count and under the same terms, under `CC(C)(O)[C@H](F)CNC(=O)c1cnc(Nc2ccn3nccc3n2)cc1NC1CCC(F)(F)C1` (some centres unmarked) [Example 258] stands 432 nM; under `CC(C)(O)[C@H](F)CNC(=O)c1cnc(Nc2ccn3nccc3n2)cc1NC1CCC(F)(F)C1` (some centres unmarked) [Example 259], 132 nM.
Consider `CC(C)(O)[C@H](F)CNC(=O)c1cnc(Nc2ccn3nccc3n2)cc1NC1CCOCC1F` (some centres unmarked) [Example 266], for which the IC50 worked out at 548 nM.
For the compound `CC(C)(O)[C@H](F)CNC(=O)c1cnc(Nc2ccn3nccc3n2)cc1NC1CCOCC1F` (some centres unmarked) [Example 270], the IC50 turned out to be 265 nM.
On the same count and under the same terms, under `CC(C)(O)[C@H](F)CNC(=O)c1cnc(Nc2ccn3nccc3n2)cc1NC1CCOCC1F` (some centres unmarked) [Example 271] stands 128 nM.
